Reference: patent US7238213B2, “Cell-based assays employing voltage and calcium dyes” (priority 2001, dated 2007)

Tests used:
DRD2 receptor = DRD2 receptor (Homo sapiens, UniProt P14416)
[1] = biological target: Gi-coupled D2 dopamine receptor (Homo sapiens, UniProt P14416); details: 300 nM, FIG. 29
Sequence of Gi-coupled D2 dopamine receptor (P14416 whole entry): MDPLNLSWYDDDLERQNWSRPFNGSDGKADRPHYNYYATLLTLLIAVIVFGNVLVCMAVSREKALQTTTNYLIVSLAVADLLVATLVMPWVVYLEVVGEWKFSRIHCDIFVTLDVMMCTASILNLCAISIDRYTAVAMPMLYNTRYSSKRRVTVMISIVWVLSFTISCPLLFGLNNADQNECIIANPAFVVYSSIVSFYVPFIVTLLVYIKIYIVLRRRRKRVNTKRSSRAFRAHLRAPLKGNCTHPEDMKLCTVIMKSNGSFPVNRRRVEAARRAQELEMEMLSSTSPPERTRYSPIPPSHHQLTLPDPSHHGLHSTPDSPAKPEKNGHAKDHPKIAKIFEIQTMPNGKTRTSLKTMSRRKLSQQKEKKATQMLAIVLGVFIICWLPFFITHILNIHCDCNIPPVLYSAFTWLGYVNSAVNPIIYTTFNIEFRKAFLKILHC

Sequence of DRD2 receptor (P14416 whole entry): as above

time to maximal response (DRD2 receptor; 1 μM dopamine, 96-well, FLEXstation): about 400 seconds | time for forskolin-induced fluorescence signal to nearly return to the pre-forskolin level (DRD2 receptor; no PDE inhibitor, FIG. 28A): ≤ 7 min | calcium response [1]: does not affect calcium levels
Compound: NCCc1ccc(O)c(O)c1 [dopamine]
